These results are taken from publication PMC4245164 (ACS Chemical Biology, 2014).

The target in the experiment is NLuc (Oplophorus gracilirostris, UniProt Q9GV45, A31E/A60N/A81I/F95D/I117V/K70R/L54V/L99Q/M102K/N193R/P142E/Q151K/Q38R/Q45L/V71I/Y165I). Briefly: Biochemical NLuc enzyme assay with S16 secNLuc cell culture medium.
Chain of NLuc (Q9GV45 28-196 with the stated changes): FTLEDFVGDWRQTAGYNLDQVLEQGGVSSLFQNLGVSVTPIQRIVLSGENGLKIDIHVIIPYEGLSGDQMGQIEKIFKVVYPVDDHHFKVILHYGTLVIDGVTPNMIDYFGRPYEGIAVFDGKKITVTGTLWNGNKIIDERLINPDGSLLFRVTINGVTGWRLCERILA

As for `CCOC(=O)C1=C(C)NC(C)=C(C(=O)OC)C1c1cccc([N+](=O)[O-])c1` (centres unmarked) [nitrendipine], the midpoint of inhibition, the IC50, lay at 6 µM.
Then `COC(=O)C1=C(C)NC(C)=C(C(=O)OC(C)C)C1c1cccc2nonc12` (centres unmarked) [isradipine], with 6 µM.
